Experimental data: patent US20030054980A1, “Ceruloplasmin and uses thereof in neurodegenerative related conditions” (priority 2000, published 2003)

Key:
P19 neurons [1] = experiment: Pro-aggregative effect on P19 neurons (culture morphology, surfaces not occupied by cells); settings: for Morphological change: 24 h; for induction of neuronal aggregation (text summary of Table 1): concentrations of Table 1, copper equivalent to (His2Cu: or higher than) that in CP
Description: Undifferentiated P19 cells were propagated in complete medium containing alpha-modified Eagle's minimal essential medium (α-MEM; Gibco-BRL, Burlington, Ontario) supplemented with 10% heat-inactivated fetal bovine serum (Cansera International, Rexdale, Ontario), 2.5 U/mL penicillin and 2.5 μg/mL streptomycin (Sigma-Aldrich). Cells were maintained at 37° C. in a humidified atmosphere of 5% CO2 and passaged every two days on non-coated tissue culture dishes. To achieve neuronal differentiation, P19 cells were seeded in bacteriological-grade petri dishes at a density of 0.9×10^5 cells/mL, and grown as aggregates, during 4 days, in complete medium containing 0.5 μM RA (Sigma-Aldrich). At day 4, aggregates were dissociated by incubation for 3 min, at room temperature, with 0.025% trypsin (250 Nα-benzoyl-L-Arg-ethyl ester (BAEE) unit per 15×10^6 cells; Sigma-Aldrich) in phosphate buffer saline (PBS) containing 1 mM EDTA, and digestion stopped by adding an equal volume of complete α-MEM medium. The resulting cellular suspensions were passaged by pipetting and subjected to two wash-and-centrifuge cycles, and individualized cells (neurons) were transferred (1500-1800 cells/mm^2) to gelatinized tissue culture dishes or multiwell plates containing NEUROBASAL™ medium (Gibco-BRL) supplemented with B27™ supplement (Gibco-BRL) and 0.5 mM L-glutamine, but no RA. Gelatinization of culture surfaces was done by incubation with 0.1% gelatin for 0.5 h at 22° C., followed by several washes with PBS to remove unbound protein. For comparison purposes, solutions of 2% gelatin, 10 μg/mL fibronectin, 10 μg/mL laminin and 5 mg/mL CP (in this case, in a proportion of 50 μL per cm^2) were also used for coating. Differentiation to fibroblasts was done by culturing P19 cells as monolayers, for 4 days, in complete medium containing RA. Cells were trypsinized every 2 days and replated in non-coated tissue culture dishes each time. From day 4 and after, cells were cultured in complete medium without RA.
At 3, 24 or 48 h after plating, P19 neurons were incubated for 24 h in a fresh provision of supplemented Neurobasal medium not containing (control) or containing CP or another agent. Protease inhibitors were added 1 h before CP. Freshly individualized cells of the other cell types tested were let to adhere to culture surfaces, in their normal culture medium (containing serum), for times indicated: undifferentiated P19 cells and their fibroblast derivatives (both for 3 and 24 h), rat smooth muscle cells (7 days), and rat hepatocytes (3 h). Afterwards, cells were extensively rinsed with PBS and incubated for 24 h in supplemented Neurobasal medium in the absence or presence of CP. After treatment with CP or other agents, cells were examined for morphology, viability, ALAMARBLUE™ dye penetration and/or apoptosis, as indicated below.
Morphological analysis was done by inversion microscopy (NIKKON™ TMS), using phase-contrast objectives and a camera (NIKKON™ F70).

P19 neurons [2] = experiment: Inhibition of CP-induced neuronal aggregation; assay type: cell-based, mouse; settings: for inhibition of CP-induced aggregation, inhibitors tested individually: 6-7 TIU/mL or half this concentration, 3.8 μM CP; for inhibition of CP-induced neuronal aggregation: 6-7 trypsin inhibitory U/mL each, added 1 h before 3.8 μM CP, morphology and dye penetration analysis
Description: Protease inhibitors were added 1 h before CP.
Day 4 P19 neurons were plated in 24- or 48-well plates in prevision of dye penetration analysis. After treatment with CP or other agents, cells were incubated for 5 h with 500 μL of a solution containing one part of ALAMARBLUE™ (Medicorp Inc., Montreal, Quebec, Canada) and nine parts of fresh supplemented Neurobasal medium. This dye is reduced to a fluorescent derivative by metabolic activity of living cells. At the end of incubation, the fluorescence of the culture medium was monitored at 590 nm, using 540 nm as the excitation wavelength.

resorufin-labeled casein = experiment: Detection of proteolytic activity with resorufin-labeled casein; assay type: biochemical; settings: culture media conditioned by cells, in all cases
Description: Evaluation of proteolytic activity in CP preparations or in cell culture media was done with resorufin-labeled casein (universal protease chromogenic substrate; Roche Diagnostics). Aliquots (100 μL) of CP solutions (about 13 mg/mL) or of culture media of cells after 24 h treatment with and without CP were incubated at 37° C. for various times (up to 22 h), with 50 μL of resorufin-labeled casein solution provided by the manufacturer and 50 μL of 0.2 M Tris-HCl, pH 7.8 containing 0.02 M CaCl2. The reaction was stopped by adding 480 μL of 5% trichloroacetic acid. After 10 min of incubation at 37° C. and 5 min of centrifugation, 400 μL of the resulting supernatants were mixed with 600 μL of 0.5 M Tris-HCl, pH 8.8, and absorbance read at 574 nm. Alternately, resorufin-labeled casein was added to culture media (50 μL substrate for each 150 μL supplemented NEUROBASAL™ medium) while cells were being treated with CP. Culture media were removed at various times (up to 24 h) and subjected to acid precipitation and spectrophotometric measurement as indicated above. Trypsin (10100 U BAEE/mg; Sigma-Aldrich) was used as a standard.

[3] = 1.14 to 49.2 μM, day 4 P19 neurons on gelatin

NC(Cc1c[nH]cn1)C(=O)[O-].NC(Cc1c[nH]cn1)C(=O)[O-].[Cu+2] (stereo not shown) [(His)2Cu complex]
Morphological change (P19 neurons [1]; 23 to 390 μM): no aggregation
induction of neuronal aggregation (text summary of Table 1) (P19 neurons [1]): did not induce neuronal aggregation

[Cl][Cu][Cl] [CuCI2, CuCl2]
Morphological change (P19 neurons [1]; 246 μM): cell death
Morphological change (P19 neurons [1]; [3]): no aggregation
induction of neuronal aggregation (text summary of Table 1) (P19 neurons [1]): did not induce neuronal aggregation

O=S(=O)([O-])[O-].[Cu+2] [CuSO4]
Morphological change (P19 neurons [1]; 246 μM): cell death
Morphological change (P19 neurons [1]; [3]): no aggregation
induction of neuronal aggregation (text summary of Table 1) (P19 neurons [1]): did not induce neuronal aggregation

Bovine serum albumin: serum protein that can transport copper ions
inhibition of CP-induced neuroaggregation (P19 neurons [2]; albumin at 3.6 μM): did not inhibit
Morphological change (P19 neurons [1]; 0.3 to 7.5 μM): no aggregation
induction of neuronal aggregation (text summary of Table 1) (P19 neurons [1]): failed to induce-aggregation

aprotinin
hydrolysis of resorufin-labeled casein (resorufin-labeled casein): completely abolished hydrolysis
inhibition of CP-induced aggregation, inhibitors tested individually (P19 neurons [2]): Complete inhibition of aggregation
inhibition of CP-induced neuronal aggregation (P19 neurons [2]): completely hindered

B1: Bovine serum amineoxidase: 180 kDa circulating non-blue copper protein (protein, UniProt Q29437 17-762, looked up)
Primary amine oxidase, liver …: REEGGVGSEEGVGKQCHPSLPPRCPSRSPSDQPWTHPDQSQLFADLSREELTTVMSFLTQQLGPDLVDAAQARPSDNCVFSVELQLPPKAAALAHLDRGSPPPAREALAIVFFGGQPQPNVTELVVGPLPQPSYMRDVTVERHGGPLPYYRRPVLLREYLDIDQMIFNRELPQAAGVLHHCCSYKQGGQKLLTMNSAPRGVQSGDRSTWFGIYYNITKGGPYLHPVGLELLVDHKALDPADWTVQKVFFQGRYYENLAQLEEQFEAGQVNVVVIPDDGTGGFWSLKSQVPPGPTPPLQFHPQGPRFSVQGNRVASSLWTFSFGLGAFSGPRVFDVRFQGERLAYEISLQEAGAVYGGNTPAAMLTRYMDSGFGMGYFATPLIRGVDCPYLATYMDWHFVVESQTPKTLHDAFCVFEQNKGLPLRRHHSDFLSHYFGGVAQTVLVFRSVSTMLNYDYVWDMVFYPNGAIEVKLHATGYISSAFLFGAARRYGNQVGEHTLGPVHTHSAHYKVDLDVGGLENWVWAEDMAFVPTAIPWSPEHQIQRLQVTRKQLETEEQAAFPLGGASPRYLYLASKQSNKWGHPRGYRIQTVSFAGGPMPQNSPMERAFSWGRYQLAITQRKETEPSSSSVFNQNDPWTPTVDFSDFINNETIAGKDLVAWVTAGFLHIPHAEDIPNTVTVGNGVGFFLRPYNFFDQEPSMDSADSIYFREGQDAGSCEINPLACLPQAATCAPDLPVFSHGGYPEY
Morphological change (P19 neurons [1]; 0.28 to 0.56 μM): no aggregation
induction of neuronal aggregation (text summary of Table 1) (P19 neurons [1]): did not induce aggregation

B2: SBTI: soybean trypsin inhibitor, serine protease inhibitor (protein, UniProt P01070 25-205, looked up)
Trypsin inhibitor A: DFVLDNEGNPLENGGTYYILSDITAFGGIRAAPTGNERCPLTVVQSRNELDKGIGTIISSPYRIRFIAEGHPLSLKFDSFAVIMLCVGIPTEWSVVEDLPEGPAVKIGENKDAMDGWFRLERVSDDEFNNYKLVFCPQQAEDDKCGDIGISIDHDDGTRRLVVSKNKPLVVQFQKLDKESL
hydrolysis of resorufin-labeled casein (resorufin-labeled casein): completely abolished hydrolysis
inhibition of CP-induced aggregation, inhibitors tested individually (P19 neurons [2]): Complete inhibition of aggregation
inhibition of CP-induced neuronal aggregation (P19 neurons [2]): completely hindered
